Experimental data as given in patent US20250355001A1, “METHOD FOR DETECTING A TAU PROTEIN FRAGMENT IN A SAMPLE” (GTINVENT LIMITED, priority 2022, published 2025).

Biological target: dGAE aggregates (Homo sapiens, UniProt P10636)
Assay: Epitope occlusion assay: dGAE aggregation with/without LMTM, 423 mAb capture ELISA
Format: biochemical
Settings: LMTM 1:5 ratio, 24 h 37 °C
Protocol: During dGAE aggregation in vitro, scAb binding regions on dGA/dGAE are ‘hidden’ or ‘occluded’ which leads to a loss of immunoreactivity in aggregation samples. Here we have shown the occlusion of binding regions in aggregated dGAE samples and the recovery of immunoreactivity in the presence of LMTM, a tau-aggregation inhibitor. For preparing the aggregates, 10 μl 10 mM DTT was added to 1000 μl 100 μM dGAE and agitated with/without LMTM (1:5 ratio) at 700 rpm for 24 h at 37° C. Following overnight agitation, one third of each sample was kept aside as ‘total’ and the rest was spun down at 16000×g for 30 min and separated into ‘supernatant’ and ‘pellet’. The pellet was then resuspended in half the original volume for further experiments. […] Doubling dilutions of dGAE aggregate ‘total’, ‘supernatant’ and ‘pellet’ samples at 10 μg/ml starting concentration were added to designated wells in doubling dilutions in 1×PBS. dGAE monomer (non-aggregated) was included as assay control. All double dilutions were done in final volumes of 100 μl. This was left to incubate on lab bench for 1 h followed by the addition of test scAbs at 10 μg/ml. Anti-HuCk HRP labelled secondary antibody was added as described previously and ELISA data generated is represented using the graph below.

dGAE aggregates, sequence (P10636 614-708): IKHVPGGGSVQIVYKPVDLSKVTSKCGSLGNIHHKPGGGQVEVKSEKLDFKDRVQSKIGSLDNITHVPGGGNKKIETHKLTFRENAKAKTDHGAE

## CN(C)c1ccc2c(c1)Sc1cc(N(C)C)ccc1N2.CS(=O)(=O)O.CS(=O)(=O)O [LMTM, reference compound]
  effect on dGAE aggregation: preventing the aggregation event
